Test results published in patent US20250145609A1, “3-SUBSTITUTED PYRIDAZINE COMPOUNDS AS SMARCA2 AND/OR SMARCA4 DEGRADERS” (Aurigene Oncology Limited, priority 2022, published 2025).

Tests used:
Type in all cases: cell-based
[1] = biological target: T1, SMARCA2 (Homo sapiens, UniProt P51531); test: SMARCA2 degradation in VCaP cells by Western blot; conditions: at 100 nM, 16 hours
T1 construct: endogenous in cells; host or cells: VCaP (ATCC CRL-2876)
Procedure, shortened: (§1)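 VCaP cells in DMEM treated 16 h with compound at a single 100 nM dose (DMSO ≤0.3%). Lysates were probed by Western blot for SMARCA2 or SMARCA4, with beta-tubulin as loading control. Percent degradation was calculated from band signals.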

[2] = system: VCaP cells; test: Anti proliferative activity in VCaP cell line by CellTiter Glo assay; conditions: Homo sapiens, VCaP, 192 h, 8 days incubation, CellTiter Glo luminescence
Experimental: Example-P1: Determination of Anti Proliferative Activity of Compounds in Cell Lines VCaP by Cell Titer Glo©(Promega) Assay
VCaP (ATCC CRL-2876) cells were seeded in 96 well plate flat black clear bottom plates (Corning, Cat. No 3904) using complete DMEM Medium. Next day, compounds listed in the present invention were added to cells from 10 mM stocks made in DMSO (Sigma Cat no. D2650). Each concentration of compound was tested in triplicate with DMSO concentration at a final percentage not exceeding 0.3 in the cells. After the incubation of VCaP cells with compound for 8 days assay was terminated using 50 μl of CellTiter Glo© reagent (Promega, Cat. no G7572). CellTiter-Glo® Luminescent reagent determines the number of viable cells based on quantitation of ATP present which is an indicator of cell number and metabolic activity. Luminescence readings were taken in Victor-3 instrument. Percent inhibition of proliferation was calculated using formula, % inhibition=100−(luminescence value of test/luminescence value of DMSO control)*100. DMSO control (0%)=Cells in complete media with DMSO; blank=Media alone containing DMSO. EC50 was calculated using graph pad prism software.
Herein the group “A” refers to EC50 values lower than l0 nM, group “B” refers to EC50 values between l0 nM-100 nM (both inclusive) and group “C” refers to EC50 values greater than 100 nM.

[3] = biological target: T2, SMARCA4 (Homo sapiens, UniProt P51532); test: SMARCA4 degradation in VCaP cells by Western blot; conditions: VCaP, 16 h, at 100 nM
T2 construct: endogenous in cells; host or cells: VCaP (ATCC CRL-2876)
Procedure, shortened: as §1

T2 sequence (P51532 whole entry): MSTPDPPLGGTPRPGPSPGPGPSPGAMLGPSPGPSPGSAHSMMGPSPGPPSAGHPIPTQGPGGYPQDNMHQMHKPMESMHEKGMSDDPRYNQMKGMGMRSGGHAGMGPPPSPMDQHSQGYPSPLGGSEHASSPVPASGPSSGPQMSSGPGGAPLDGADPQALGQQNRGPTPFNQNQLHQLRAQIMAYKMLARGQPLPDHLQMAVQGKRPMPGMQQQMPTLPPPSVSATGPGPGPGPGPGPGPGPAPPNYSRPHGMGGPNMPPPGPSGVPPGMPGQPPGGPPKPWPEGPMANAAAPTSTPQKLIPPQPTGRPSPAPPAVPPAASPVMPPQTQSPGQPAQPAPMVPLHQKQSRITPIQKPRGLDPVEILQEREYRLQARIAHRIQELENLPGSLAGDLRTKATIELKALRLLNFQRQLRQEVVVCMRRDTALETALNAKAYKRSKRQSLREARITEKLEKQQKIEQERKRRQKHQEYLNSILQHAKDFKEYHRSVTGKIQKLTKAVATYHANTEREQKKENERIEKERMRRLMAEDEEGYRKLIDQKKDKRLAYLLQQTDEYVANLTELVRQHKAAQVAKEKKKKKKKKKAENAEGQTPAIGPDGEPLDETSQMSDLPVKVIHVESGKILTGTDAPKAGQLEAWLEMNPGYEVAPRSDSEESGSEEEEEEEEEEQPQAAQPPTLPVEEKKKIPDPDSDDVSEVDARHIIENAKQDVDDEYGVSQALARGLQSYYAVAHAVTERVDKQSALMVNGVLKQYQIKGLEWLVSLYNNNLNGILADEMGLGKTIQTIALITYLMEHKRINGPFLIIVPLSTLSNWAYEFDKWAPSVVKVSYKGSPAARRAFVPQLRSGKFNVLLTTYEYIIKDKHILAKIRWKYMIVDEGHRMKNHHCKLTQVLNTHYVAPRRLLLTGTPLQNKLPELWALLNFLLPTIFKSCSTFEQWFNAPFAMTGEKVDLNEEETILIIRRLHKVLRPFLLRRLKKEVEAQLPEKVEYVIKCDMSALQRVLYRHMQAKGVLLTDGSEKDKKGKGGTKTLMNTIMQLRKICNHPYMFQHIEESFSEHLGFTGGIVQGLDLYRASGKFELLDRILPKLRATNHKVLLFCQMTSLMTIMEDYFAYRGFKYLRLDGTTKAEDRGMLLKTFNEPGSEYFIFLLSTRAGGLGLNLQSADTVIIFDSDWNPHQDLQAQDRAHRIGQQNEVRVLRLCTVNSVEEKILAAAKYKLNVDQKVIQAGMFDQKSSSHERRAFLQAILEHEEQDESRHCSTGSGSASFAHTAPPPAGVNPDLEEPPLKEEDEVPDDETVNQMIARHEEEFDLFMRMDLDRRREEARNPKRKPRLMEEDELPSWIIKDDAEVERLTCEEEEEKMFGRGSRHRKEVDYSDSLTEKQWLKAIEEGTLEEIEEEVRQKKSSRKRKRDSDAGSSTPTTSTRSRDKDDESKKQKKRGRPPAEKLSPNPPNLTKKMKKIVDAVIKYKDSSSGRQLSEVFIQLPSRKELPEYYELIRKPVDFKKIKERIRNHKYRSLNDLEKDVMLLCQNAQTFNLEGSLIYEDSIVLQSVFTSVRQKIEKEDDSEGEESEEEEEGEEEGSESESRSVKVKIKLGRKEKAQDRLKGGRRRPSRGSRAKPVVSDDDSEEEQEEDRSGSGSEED
T1 sequence (P51531 whole entry): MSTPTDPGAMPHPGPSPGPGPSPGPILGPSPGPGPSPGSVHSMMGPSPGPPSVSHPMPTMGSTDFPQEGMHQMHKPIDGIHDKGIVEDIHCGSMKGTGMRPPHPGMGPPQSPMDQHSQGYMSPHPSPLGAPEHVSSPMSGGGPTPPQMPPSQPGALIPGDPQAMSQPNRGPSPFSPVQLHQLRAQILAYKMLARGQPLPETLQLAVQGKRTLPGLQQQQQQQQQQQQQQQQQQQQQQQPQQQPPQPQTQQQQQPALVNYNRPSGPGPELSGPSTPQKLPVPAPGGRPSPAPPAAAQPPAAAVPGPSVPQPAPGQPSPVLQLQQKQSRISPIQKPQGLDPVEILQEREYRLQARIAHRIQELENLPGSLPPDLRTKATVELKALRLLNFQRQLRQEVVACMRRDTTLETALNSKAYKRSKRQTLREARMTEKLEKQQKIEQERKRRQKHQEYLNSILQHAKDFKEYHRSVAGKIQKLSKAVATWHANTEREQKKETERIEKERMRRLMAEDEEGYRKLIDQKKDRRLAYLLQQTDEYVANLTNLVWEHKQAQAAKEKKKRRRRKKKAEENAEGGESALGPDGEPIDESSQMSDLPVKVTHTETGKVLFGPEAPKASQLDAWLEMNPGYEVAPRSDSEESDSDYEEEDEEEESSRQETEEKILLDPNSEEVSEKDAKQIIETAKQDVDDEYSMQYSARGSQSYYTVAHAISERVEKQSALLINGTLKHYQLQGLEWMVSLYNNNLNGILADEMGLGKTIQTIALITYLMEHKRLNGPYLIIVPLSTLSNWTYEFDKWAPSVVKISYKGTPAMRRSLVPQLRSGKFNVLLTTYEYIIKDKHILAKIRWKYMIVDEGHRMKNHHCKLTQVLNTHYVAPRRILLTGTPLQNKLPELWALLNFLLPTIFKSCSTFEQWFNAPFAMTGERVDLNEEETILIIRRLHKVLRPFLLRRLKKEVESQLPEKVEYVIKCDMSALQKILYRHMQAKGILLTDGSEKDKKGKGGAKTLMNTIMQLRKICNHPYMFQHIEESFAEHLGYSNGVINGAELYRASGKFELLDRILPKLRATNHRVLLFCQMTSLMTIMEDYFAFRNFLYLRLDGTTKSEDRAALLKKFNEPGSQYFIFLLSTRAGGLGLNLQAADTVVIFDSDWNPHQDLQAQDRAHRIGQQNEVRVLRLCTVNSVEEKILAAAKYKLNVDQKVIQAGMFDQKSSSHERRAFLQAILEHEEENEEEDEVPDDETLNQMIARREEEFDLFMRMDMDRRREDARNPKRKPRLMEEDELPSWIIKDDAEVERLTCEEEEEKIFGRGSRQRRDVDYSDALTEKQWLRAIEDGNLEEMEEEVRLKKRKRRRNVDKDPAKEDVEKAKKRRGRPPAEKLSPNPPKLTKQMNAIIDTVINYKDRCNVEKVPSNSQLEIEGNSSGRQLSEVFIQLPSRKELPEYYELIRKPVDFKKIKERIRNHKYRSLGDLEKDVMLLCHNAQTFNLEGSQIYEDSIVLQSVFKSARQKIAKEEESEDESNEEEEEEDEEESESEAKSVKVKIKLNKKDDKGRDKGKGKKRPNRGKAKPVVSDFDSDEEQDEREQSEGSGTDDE

Percent degradation SMARCA2 [1] [%]	EC50 [2] [nM]	Percent SMARCA4 degradation at 0.1 µM [3] [%]	SMILES
99	10 to 100	90	Cc1ncsc1-c1ccc([C@H](C)NC(=O)[C@@H]2C[C@@H](O)CN2C(=O)[C@@H](NC(=O)CN2CCC(c3ccc(-c4cc(-c5cc(F)ccc5O)nnc4N)cc3)CC2)C(C)(C)C)cc1 [Compound 31, (2S,4R)-1-((S)-2-(2-(4-(4-(3-amino-6-(5-fluoro-2-hydroxyphenyl)pyridazin-4-yl)phenyl)piperidin-1-yl)acetamido)-3,3-dimethylbutanoyl)-4-hydroxy-N-((S)-1-(4-(4-methylthiazol-5-yl)phenyl)ethyl)pyrrolidine-2-carboxamide]
100	10 to 100	91	Cc1ncsc1-c1ccc([C@H](C)NC(=O)[C@@H]2C[C@@H](O)CN2C(=O)[C@@H](NC(=O)CC2CCN(c3ccc(-c4cc(-c5ccccc5O)nnc4N)cc3)CC2)C(C)(C)C)cc1 [Compound 38, (2S,4R)-1-((S)-2-(2-(1-(4-(3-amino-6-(2-hydroxyphenyl)pyridazin-4-yl)phenyl)piperidin-4-yl)acetamido)-3,3-dimethylbutanoyl)-4-hydroxy-N-((S)-1-(4-(4-methylthiazol-5-yl)phenyl)ethyl)pyrrolidine-2-carboxamide]
78	> 100	0	Cc1ncsc1-c1ccc([C@H](C)NC(=O)[C@@H]2C[C@@H](O)CN2C(=O)[C@@H](NC(=O)CN2CCN(c3ccc(-c4cc(-c5ccccc5O)nnc4N)cc3)C(=O)C2)C(C)(C)C)cc1 [Compound 39, (2S,4R)-1-((S)-2-(2-(4-(4-(3-amino-6-(2-hydroxyphenyl)pyridazin-4-yl)phenyl)-3-oxopiperazin-1-yl)acetamido)-3,3-dimethylbutanoyl)-4-hydroxy-N-((S)-1-(4-(4-methylthiazol-5-yl)phenyl)ethyl)pyrrolidine-2-carboxamide]
85	> 100	0	Cc1ncsc1-c1ccc([C@H](C)NC(=O)[C@@H]2C[C@@H](O)CN2C(=O)[C@@H](NC(=O)Cn2ccc(-c3ccc(-c4cc(-c5ccccc5O)nnc4N)cc3)c2)C(C)(C)C)cc1 [Compound 50, (2S,4R)-1-((S)-2-(2-(3-(4-(3-amino-6-(2-hydroxyphenyl)pyridazin-4-yl)phenyl)-1H-pyrrol-1-yl)acetamido)-3,3-dimethylbutanoyl)-4-hydroxy-N-((S)-1-(4-(4-methylthiazol-5-yl)phenyl)ethyl)pyrrolidine-2-carboxamide]
95	10 to 100	24	Cc1ncsc1-c1ccc([C@H](C)NC(=O)[C@@H]2C[C@@H](O)CN2C(=O)[C@@H](NC(=O)CN2CCC(c3ccc(-c4cc(-c5ccccc5O)nnc4N)cc3)C2)C(C)(C)C)cc1 (stereo partly drawn) [Compound 51, (2S,4R)-1-((2S)-2-(2-(3-(4-(3-amino-6-(2-hydroxyphenyl)pyridazin-4-yl)phenyl)pyrrolidin-1-yl)acetamido)-3,3-dimethylbutanoyl)-4-hydroxy-N-((S)-1-(4-(4-methylthiazol-5-yl)phenyl)ethyl)pyrrolidine-2-carboxamide]
97	> 100	70	Cc1ncsc1-c1ccc([C@H](C)NC(=O)[C@@H]2C[C@@H](O)CN2C(=O)[C@@H](NC(=O)CN2CC(c3ccc(-c4cc(-c5ccccc5O)nnc4N)cc3)C2)C(C)(C)C)cc1 [Compound 52, (2S,4R)-1-((S)-2-(2-(3-(4-(3-amino-6-(2-hydroxyphenyl)pyridazin-4-yl)phenyl)azetidin-1-yl)acetamido)-3,3-dimethylbutanoyl)-4-hydroxy-N-((S)-1-(4-(4-methylthiazol-5-yl)phenyl)ethyl)pyrrolidine-2-carboxamide]
98	< 10	89	Cc1ncsc1-c1ccc([C@H](C)NC(=O)[C@@H]2C[C@@H](O)CN2C(=O)[C@@H](NC(=O)CN2CCC(Oc3ccc(-c4cc(-c5ccccc5O)nnc4N)cc3)CC2)C(C)(C)C)cc1 [Compound 53, (2S,4R)-1-((S)-2-(2-(4-(4-(3-amino-6-(2-hydroxyphenyl)pyridazin-4-yl)phenoxy)piperidin-1-yl)acetamido)-3,3-dimethylbutanoyl)-4-hydroxy-N-((S)-1-(4-(4-methylthiazol-5-yl)phenyl)ethyl)pyrrolidine-2-carboxamide]
99	10 to 100	90	Cc1ncsc1-c1ccc([C@H](C)NC(=O)[C@@H]2C[C@@H](O)CN2C(=O)[C@@H](NC(=O)CCCCOc2ccc(-c3cc(-c4ccccc4O)nnc3N)cc2)C(C)(C)C)cc1 [Compound 58, (2S,4R)-1-((S)-2-(5-(4-(3-amino-6-(2-hydroxyphenyl)pyridazin-4-yl)phenoxy)pentanamido)-3,3-dimethylbutanoyl)-4-hydroxy-N—((S)-1-(4-(4-methylthiazol-5-yl)phenyl)ethyl)pyrrolidine-2-carboxamide]

SMILES	Percent degradation SMARCA2 [1] [%]	EC50 [2] [nM]	Percent SMARCA4 degradation at 0.1 µM [3] [%]
Cc1ncsc1-c1ccc([C@H](C)NC(=O)[C@@H]2C[C@@H](O)CN2C(=O)[C@@H](NC(=O)CN2CCC(O)(c3ccc(-c4cc(-c5ccccc5O)nnc4N)cc3)CC2)C(C)(C)C)cc1 [Compound 48, (2S,4R)-1-((S)-2-(2-(4-(4-(3-amino-6-(2-hydroxyphenyl)pyridazin-4-yl)phenyl)-4-hydroxypiperidin-1-yl)acetamido)-3,3-dimethylbutanoyl)-4-hydroxy-N-((S)-1-(4-(4-methylthiazol-5-yl)phenyl)ethyl)pyrrolidine-2-carboxamide]	97	10 to 100	20
